Measured values as given in paper PMC6886798, “Expression of myeloid Src-family kinases is associated with poor prognosis in AML and influences Flt3-ITD kinase inhibitor acquired resistance” (PLoS ONE, 2019).

Legend:
Assay in all cases: KINOMEscan
Type in all cases: binding
Details in all cases: 1.0 µM
[1] = molecular target: T1, DCAMKL2 (Homo sapiens, UniProt Q8N568)
T1 construct: purchased Eurofins/DiscoverX KINOMEscan scanMAX
Experimental: (§1) Kinase retention to the immobilized ligand is then measured using quantitative real-time PCR for each kinase-specific DNA barcode.

[2] = molecular target: T2, RAF1 (Homo sapiens, UniProt P04049)
T2 construct: purchased Eurofins/DiscoverX KINOMEscan scanMAX
Experimental: as §1

[3] = molecular target: T3, SRPK2 (Homo sapiens, UniProt P78362)
T3 construct: purchased Eurofins/DiscoverX KINOMEscan scanMAX
Experimental: as §1

[4] = molecular target: T4, RSK3(Kin.Dom.2-C-terminal) (Homo sapiens, UniProt Q15349)
T4 construct: RSK3(Kin.Dom.2-C-terminal); purchased Eurofins/DiscoverX KINOMEscan scanMAX
T4 sequence (Q15349 415-672 limits assumed): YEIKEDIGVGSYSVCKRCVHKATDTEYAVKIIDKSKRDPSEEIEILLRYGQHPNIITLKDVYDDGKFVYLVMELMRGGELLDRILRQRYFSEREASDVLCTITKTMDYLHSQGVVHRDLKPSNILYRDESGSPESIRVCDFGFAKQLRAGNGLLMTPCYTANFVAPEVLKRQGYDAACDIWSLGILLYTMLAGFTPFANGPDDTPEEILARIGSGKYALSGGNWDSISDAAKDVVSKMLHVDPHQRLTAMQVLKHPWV
Experimental: as §1

[5] = molecular target: T5, MAK (Homo sapiens, UniProt P20794)
T5 construct: purchased Eurofins/DiscoverX KINOMEscan scanMAX
T5 sequence (P20794 whole entry): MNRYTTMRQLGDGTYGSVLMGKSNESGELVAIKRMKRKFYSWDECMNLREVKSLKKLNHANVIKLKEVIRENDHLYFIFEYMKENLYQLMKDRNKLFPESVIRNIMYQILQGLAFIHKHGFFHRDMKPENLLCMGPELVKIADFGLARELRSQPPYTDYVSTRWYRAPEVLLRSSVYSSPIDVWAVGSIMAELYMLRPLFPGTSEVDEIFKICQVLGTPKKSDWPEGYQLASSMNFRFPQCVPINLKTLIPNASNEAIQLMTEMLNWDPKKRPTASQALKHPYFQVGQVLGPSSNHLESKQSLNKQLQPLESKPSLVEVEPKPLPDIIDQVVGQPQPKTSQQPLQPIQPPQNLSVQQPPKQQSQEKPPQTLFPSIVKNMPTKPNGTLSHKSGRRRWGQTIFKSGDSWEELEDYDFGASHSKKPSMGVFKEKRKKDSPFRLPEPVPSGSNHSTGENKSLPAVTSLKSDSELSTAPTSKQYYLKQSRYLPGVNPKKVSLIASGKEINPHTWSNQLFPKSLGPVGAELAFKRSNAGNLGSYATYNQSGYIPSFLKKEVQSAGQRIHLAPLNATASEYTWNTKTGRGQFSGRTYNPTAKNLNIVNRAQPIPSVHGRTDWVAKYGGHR
Experimental: as §1

[6] = molecular target: T6, PIP5K1A (Homo sapiens, UniProt Q99755)
T6 construct: purchased Eurofins/DiscoverX KINOMEscan scanMAX
Experimental: as §1

[7] = molecular target: T7, EPHA1 (Homo sapiens, UniProt P21709)
T7 construct: purchased Eurofins/DiscoverX KINOMEscan scanMAX
Experimental: as §1

[8] = molecular target: T8, CDK5 (Homo sapiens, UniProt Q00535)
T8 construct: purchased Eurofins/DiscoverX KINOMEscan scanMAX
Experimental: as §1

[9] = molecular target: T9, CHEK2 (Homo sapiens, UniProt O96017)
T9 construct: purchased Eurofins/DiscoverX KINOMEscan scanMAX
Experimental: as §1

[10] = molecular target: T10, TRKA (Homo sapiens, UniProt P04629)
T10 construct: purchased Eurofins/DiscoverX KINOMEscan scanMAX
T10 sequence (P04629 33-796): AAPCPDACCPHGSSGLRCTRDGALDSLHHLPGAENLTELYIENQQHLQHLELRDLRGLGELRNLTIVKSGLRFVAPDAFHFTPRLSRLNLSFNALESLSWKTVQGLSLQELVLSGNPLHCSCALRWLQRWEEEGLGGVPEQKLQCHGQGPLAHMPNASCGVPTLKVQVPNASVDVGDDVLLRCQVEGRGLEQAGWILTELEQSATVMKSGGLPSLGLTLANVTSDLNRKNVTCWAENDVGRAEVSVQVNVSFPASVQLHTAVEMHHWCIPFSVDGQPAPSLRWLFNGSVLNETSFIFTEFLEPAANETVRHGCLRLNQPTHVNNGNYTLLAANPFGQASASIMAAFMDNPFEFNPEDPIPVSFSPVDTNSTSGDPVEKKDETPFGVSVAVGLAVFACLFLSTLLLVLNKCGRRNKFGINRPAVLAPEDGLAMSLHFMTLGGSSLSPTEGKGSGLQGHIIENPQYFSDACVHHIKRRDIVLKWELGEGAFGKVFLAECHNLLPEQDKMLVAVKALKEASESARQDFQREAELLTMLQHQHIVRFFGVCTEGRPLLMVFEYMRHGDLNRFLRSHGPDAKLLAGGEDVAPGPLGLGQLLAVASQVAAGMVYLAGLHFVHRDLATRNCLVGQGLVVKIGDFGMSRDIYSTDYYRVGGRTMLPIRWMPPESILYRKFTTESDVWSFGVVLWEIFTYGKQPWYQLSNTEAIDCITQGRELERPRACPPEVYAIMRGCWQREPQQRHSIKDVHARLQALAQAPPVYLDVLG
Experimental: as §1

[11] = molecular target: T11, GSK3B (Homo sapiens, UniProt P49841)
T11 construct: purchased Eurofins/DiscoverX KINOMEscan scanMAX
T11 sequence (P49841 whole entry): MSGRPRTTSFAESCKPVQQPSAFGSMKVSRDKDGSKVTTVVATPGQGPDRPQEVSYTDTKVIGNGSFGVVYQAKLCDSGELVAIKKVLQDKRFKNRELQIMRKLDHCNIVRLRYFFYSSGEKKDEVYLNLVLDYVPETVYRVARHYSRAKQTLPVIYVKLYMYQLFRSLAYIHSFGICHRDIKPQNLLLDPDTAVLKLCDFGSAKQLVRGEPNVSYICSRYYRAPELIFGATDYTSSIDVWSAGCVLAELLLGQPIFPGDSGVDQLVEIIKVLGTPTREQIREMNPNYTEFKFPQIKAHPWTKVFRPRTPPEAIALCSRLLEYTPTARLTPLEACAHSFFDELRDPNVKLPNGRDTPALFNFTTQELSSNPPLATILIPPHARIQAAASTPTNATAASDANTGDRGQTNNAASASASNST
Experimental: as §1

[12] = molecular target: T12, RSK1(Kin.Dom.2-C-terminal) (Homo sapiens, UniProt Q15418)
T12 construct: RSK1(Kin.Dom.2-C-terminal); purchased Eurofins/DiscoverX KINOMEscan scanMAX
Experimental: as §1

[13] = molecular target: T13, PIK3CA(M1043I) (Homo sapiens, UniProt P42336, M1043I)
T13 construct: purchased Eurofins/DiscoverX KINOMEscan scanMAX
Experimental: as §1

[14] = molecular target: T14, RPS6KA4(Kin.Dom.2-C-terminal) (Homo sapiens, UniProt O75676)
T14 construct: RPS6KA4(Kin.Dom.2-C-terminal); purchased Eurofins/DiscoverX KINOMEscan scanMAX
Experimental: as §1

[15] = molecular target: T15, MAP3K3 (Homo sapiens, UniProt Q99759)
T15 construct: purchased Eurofins/DiscoverX KINOMEscan scanMAX
Experimental: as §1

[16] = molecular target: T16, CDK11 (Homo sapiens, UniProt Q9BWU1)
T16 construct: purchased Eurofins/DiscoverX KINOMEscan scanMAX
Experimental: as §1

[17] = molecular target: T17, CSF1R (Homo sapiens, UniProt P07333)
T17 construct: purchased Eurofins/DiscoverX KINOMEscan scanMAX
Experimental: as §1

[18] = molecular target: T18, ULK1 (Homo sapiens, UniProt O75385)
T18 construct: DNA tag (qPCR barcode); purchased Eurofins/DiscoverX KINOMEscan scanMAX
Experimental: as §1

[19] = molecular target: T19, DCAMKL1 (Homo sapiens, UniProt O15075)
T19 construct: purchased Eurofins/DiscoverX KINOMEscan scanMAX
Experimental: as §1

[20] = molecular target: T20, MLCK (Homo sapiens, UniProt Q32MK0)
T20 construct: purchased Eurofins/DiscoverX KINOMEscan scanMAX
Experimental: as §1

[21] = molecular target: T21, MAST1 (Homo sapiens, UniProt Q9Y2H9)
T21 construct: purchased Eurofins/DiscoverX KINOMEscan scanMAX
Experimental: as §1

[22] = molecular target: T22, IRAK4 (Homo sapiens, UniProt Q9NWZ3)
T22 construct: purchased Eurofins/DiscoverX KINOMEscan scanMAX
T22 sequence (Q9NWZ3 whole entry): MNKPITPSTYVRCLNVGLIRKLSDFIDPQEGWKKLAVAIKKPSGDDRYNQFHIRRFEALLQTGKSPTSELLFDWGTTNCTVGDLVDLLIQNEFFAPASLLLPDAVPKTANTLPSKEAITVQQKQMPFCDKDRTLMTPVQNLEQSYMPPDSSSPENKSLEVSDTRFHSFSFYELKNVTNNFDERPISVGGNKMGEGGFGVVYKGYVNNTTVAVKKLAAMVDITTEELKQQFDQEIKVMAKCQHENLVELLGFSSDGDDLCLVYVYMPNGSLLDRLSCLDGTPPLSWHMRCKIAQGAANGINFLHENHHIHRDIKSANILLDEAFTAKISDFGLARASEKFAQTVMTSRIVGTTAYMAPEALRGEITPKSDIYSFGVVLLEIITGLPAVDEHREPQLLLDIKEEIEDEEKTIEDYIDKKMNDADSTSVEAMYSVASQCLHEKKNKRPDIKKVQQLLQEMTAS
Experimental: as §1

[23] = molecular target: T23, NEK10 (Homo sapiens, UniProt Q6ZWH5)
T23 construct: purchased Eurofins/DiscoverX KINOMEscan scanMAX
T23 sequence (Q6ZWH5 whole entry): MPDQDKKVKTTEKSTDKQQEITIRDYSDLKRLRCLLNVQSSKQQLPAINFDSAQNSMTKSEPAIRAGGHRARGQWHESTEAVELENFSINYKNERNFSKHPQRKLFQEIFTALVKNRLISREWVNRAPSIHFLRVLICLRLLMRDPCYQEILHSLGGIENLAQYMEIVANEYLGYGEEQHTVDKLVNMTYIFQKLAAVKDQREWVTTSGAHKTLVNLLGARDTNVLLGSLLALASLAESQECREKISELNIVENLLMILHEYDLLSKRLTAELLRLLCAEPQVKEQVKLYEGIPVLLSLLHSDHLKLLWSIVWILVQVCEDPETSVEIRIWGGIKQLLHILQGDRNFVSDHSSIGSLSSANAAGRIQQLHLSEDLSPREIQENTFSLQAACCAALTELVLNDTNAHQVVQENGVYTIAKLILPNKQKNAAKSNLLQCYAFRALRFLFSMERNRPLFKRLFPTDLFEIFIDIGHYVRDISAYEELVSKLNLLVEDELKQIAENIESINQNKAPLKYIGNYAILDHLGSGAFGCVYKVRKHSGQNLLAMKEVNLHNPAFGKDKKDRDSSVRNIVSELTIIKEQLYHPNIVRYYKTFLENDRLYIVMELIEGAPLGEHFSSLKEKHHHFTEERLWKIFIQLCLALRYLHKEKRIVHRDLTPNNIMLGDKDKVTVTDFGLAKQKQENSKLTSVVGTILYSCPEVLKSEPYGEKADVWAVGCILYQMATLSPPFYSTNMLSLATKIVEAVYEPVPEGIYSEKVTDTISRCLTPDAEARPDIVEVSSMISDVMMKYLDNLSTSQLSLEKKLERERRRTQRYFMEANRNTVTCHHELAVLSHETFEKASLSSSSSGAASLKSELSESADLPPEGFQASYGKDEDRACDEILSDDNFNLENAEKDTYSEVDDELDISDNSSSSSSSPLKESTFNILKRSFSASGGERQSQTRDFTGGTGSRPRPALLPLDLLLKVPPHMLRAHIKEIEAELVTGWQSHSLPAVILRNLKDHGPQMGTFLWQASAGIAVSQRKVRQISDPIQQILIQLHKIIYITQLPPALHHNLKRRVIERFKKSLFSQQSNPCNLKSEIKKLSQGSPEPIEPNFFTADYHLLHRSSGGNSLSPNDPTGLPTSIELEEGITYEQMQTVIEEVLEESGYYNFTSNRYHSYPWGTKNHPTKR
Experimental: as §1

[24] = molecular target: T24, FLT3(R834Q) (Homo sapiens, UniProt P36888, R834Q)
T24 construct: purchased Eurofins/DiscoverX KINOMEscan scanMAX
Experimental: as §1

[25] = molecular target: T25, TGFBR1 (Homo sapiens, UniProt P36897)
T25 construct: purchased Eurofins/DiscoverX KINOMEscan scanMAX
Experimental: as §1

[26] = molecular target: T26, JNK1 (Homo sapiens, UniProt P45983)
T26 construct: purchased Eurofins/DiscoverX KINOMEscan scanMAX
Experimental: as §1

[27] = molecular target: T27, PIM1 (Homo sapiens, UniProt P11309)
T27 construct: purchased Eurofins/DiscoverX KINOMEscan scanMAX
T27 sequence (P11309 whole entry): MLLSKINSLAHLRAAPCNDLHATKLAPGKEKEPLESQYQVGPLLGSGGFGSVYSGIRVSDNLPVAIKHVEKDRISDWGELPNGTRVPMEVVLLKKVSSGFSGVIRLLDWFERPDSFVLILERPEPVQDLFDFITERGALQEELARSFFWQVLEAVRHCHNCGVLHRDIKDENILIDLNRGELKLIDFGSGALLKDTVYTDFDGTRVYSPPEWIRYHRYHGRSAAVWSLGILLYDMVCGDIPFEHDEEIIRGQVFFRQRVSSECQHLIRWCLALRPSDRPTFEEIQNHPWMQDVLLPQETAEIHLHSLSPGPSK
Experimental: as §1

[28] = molecular target: T28, FGR (Homo sapiens, UniProt P09769)
T28 construct: purchased Eurofins/DiscoverX KINOMEscan scanMAX
Experimental: as §1

[29] = molecular target: T29, ABL1(F317I)-phosphorylated (Homo sapiens, UniProt P00519, F317I)
T29 construct: purchased Eurofins/DiscoverX KINOMEscan scanMAX
Experimental: as §1

[30] = molecular target: T30, ACVR2B (Homo sapiens, UniProt Q13705)
T30 construct: purchased Eurofins/DiscoverX KINOMEscan scanMAX
Experimental: as §1

[31] = molecular target: T31, YANK1 (Homo sapiens, UniProt Q8WU08)
T31 construct: DNA tag (qPCR barcode); purchased Eurofins/DiscoverX KINOMEscan scanMAX
T31 sequence (Q8WU08 whole entry): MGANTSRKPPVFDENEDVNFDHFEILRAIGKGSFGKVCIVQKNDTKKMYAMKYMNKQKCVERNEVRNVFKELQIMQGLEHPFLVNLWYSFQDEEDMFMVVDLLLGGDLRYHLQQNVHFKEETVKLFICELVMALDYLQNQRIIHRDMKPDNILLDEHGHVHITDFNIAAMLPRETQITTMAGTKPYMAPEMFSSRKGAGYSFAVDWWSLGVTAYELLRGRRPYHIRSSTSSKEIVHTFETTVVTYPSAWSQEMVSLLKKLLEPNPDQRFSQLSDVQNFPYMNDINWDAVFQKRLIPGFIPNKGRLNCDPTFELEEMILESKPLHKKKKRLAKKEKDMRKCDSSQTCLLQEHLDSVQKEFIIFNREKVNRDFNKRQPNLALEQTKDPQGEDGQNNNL
Experimental: as §1

[32] = molecular target: T32, CDKL1 (Homo sapiens, UniProt Q00532)
T32 construct: purchased Eurofins/DiscoverX KINOMEscan scanMAX
Experimental: as §1

[33] = molecular target: T33, ABL1(Q252H)-nonphosphorylated (Homo sapiens, UniProt P00519, Q252H)
T33 construct: purchased Eurofins/DiscoverX KINOMEscan scanMAX
Experimental: as §1

[34] = molecular target: T34, ERK3 (Homo sapiens, UniProt Q16659)
T34 construct: purchased Eurofins/DiscoverX KINOMEscan scanMAX
Experimental: as §1

[35] = molecular target: T35, RIOK1 (Homo sapiens, UniProt Q9BRS2)
T35 construct: purchased Eurofins/DiscoverX KINOMEscan scanMAX
Experimental: as §1

[36] = molecular target: T36, CDKL3 (Homo sapiens, UniProt Q8IVW4)
T36 construct: purchased Eurofins/DiscoverX KINOMEscan scanMAX
Experimental: as §1

[37] = molecular target: T37, MAPKAPK2 (Homo sapiens, UniProt P49137)
T37 construct: purchased Eurofins/DiscoverX KINOMEscan scanMAX
Experimental: as §1

[38] = molecular target: T38, NEK2 (Homo sapiens, UniProt P51955)
T38 construct: purchased Eurofins/DiscoverX KINOMEscan scanMAX
T38 sequence (P51955 whole entry): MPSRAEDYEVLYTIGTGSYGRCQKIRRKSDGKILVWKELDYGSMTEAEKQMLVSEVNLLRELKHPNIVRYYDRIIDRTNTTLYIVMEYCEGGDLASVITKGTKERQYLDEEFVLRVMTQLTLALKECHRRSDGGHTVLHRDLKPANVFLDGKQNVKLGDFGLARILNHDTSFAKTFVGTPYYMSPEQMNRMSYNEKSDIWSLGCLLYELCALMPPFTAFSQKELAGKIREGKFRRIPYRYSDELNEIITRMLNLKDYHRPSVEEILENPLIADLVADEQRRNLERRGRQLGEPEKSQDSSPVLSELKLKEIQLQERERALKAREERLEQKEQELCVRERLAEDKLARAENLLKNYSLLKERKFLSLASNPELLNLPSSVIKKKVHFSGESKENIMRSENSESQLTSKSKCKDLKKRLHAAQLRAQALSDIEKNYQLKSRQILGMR
Experimental: as §1

[39] = molecular target: T39, DCAMKL3 (Homo sapiens, UniProt Q9C098)
T39 construct: purchased Eurofins/DiscoverX KINOMEscan scanMAX
Experimental: as §1

[40] = molecular target: T40, FLT3(D835H) (Homo sapiens, UniProt P36888, D835H)
T40 construct: purchased Eurofins/DiscoverX KINOMEscan scanMAX
Experimental: as §1

`CN1CCN(C2CCC(n3cc(-c4ccc(Oc5ccccc5)cc4)c4c(N)ncnc43)CC2)CC1` (stereo not shown) [A-419259] was tested, and the “% Control” value [1] was 87%, the “% Control” value [2] was 40% and the “% Control” value [3] was 97%. For the same molecule, the “% Control” value [4] was 100%, the “% Control” value [5] was 100% and the “% Control” value [6] was 100%. The “% Control” value [7] was 58%, the “% Control” value [8] was 83% and the “% Control” value [9] was 40%. The “% Control” value [10] was 16%, the “% Control” value [11] was 95% and the “% Control” value [12] was 84%. The “% Control” value [13] was 100%, the “% Control” value [14] was 99% and the “% Control” value [15] was 6.3%. For the same molecule, the “% Control” value [16] was 3.9%, the “% Control” value [17] was 5.8% and the “% Control” value [18] was 99%. For the same molecule, the “% Control” value [19] was 43%, the “% Control” value [20] was 66% and the “% Control” value [21] was 64%. For the same molecule, the “% Control” value [22] was 90%, the “% Control” value [23] was 100% and the “% Control” value [24] was 2.7%. The “% Control” value [25] was 60%, the “% Control” value [26] was 95% and the “% Control” value [27] was 100%. For the same molecule, the “% Control” value [28] was 0.85%, the “% Control” value [29] was 2.4% and the “% Control” value [30] was 100%. For the same molecule, the “% Control” value [31] was 30%, the “% Control” value [32] was 99% and the “% Control” value [33] was 0.85%. The “% Control” value [34] was 100%, the “% Control” value [35] was 77% and the “% Control” value [36] was 100%. For the same molecule, the “% Control” value [37] was 100%, the “% Control” value [38] was 81% and the “% Control” value [39] was 100%. For the same molecule, the “% Control” value [40] was 12%.
